Results: patent US20240325539A1, “METHODS AND COMPOSITIONS FOR TREATING EPSTEIN BARR VIRUS-ASSOCIATED CANCER” (The Chancellor, Masters and Scholars of the University of …, priority 2020, published 2024)

What was measured:
[1] = test system: YCCEL1 cells; assay type: cell-based, human
[2] = test system: AGS-EBV cells; assay: Zta expression (immunofluorescence and Western blot); assay type: cell-based, human; settings: for Zta expression: 5 μM SAHA, 5 μM chidamide, 2.5 μM CXD101
Description: (§1) Protein concentration was determined by the Bradford assay.

[3] = test system: Burkitt lymphoma cell lines Namalwa, Raji, and Akata; assay: Western blot for Zta and H3-ac in Burkitt lymphoma cell lines; assay type: cell-based, human; settings: naturally infected Burkitt lymphoma cell lines
Description: as §1
(§2) CXD101 is currently undergoing clinical trials (Eyre, T. A., et al. (2019). Cancer 125, 99-108.), and chidamide is approved in China by the National Medical Products Administration (NMPA) for treatment of peripheral T-cell lymphoma (Xu, Y., et al. (2017). Drugs of Today; 53.) and breast cancer (Jiang, Z., et al. (2018). Annals of Oncology; 29.). Therefore, chidamide and CXD101 were used to treat naturally-infected Burkitt lymphoma cell lines Namalwa, Raji, and Akata, or the ex vivo infected lymphoblastoid cell line PD-LCL in parallel with YCCEL1 cells. Romidepsin was used to treat the same panel of cells. […] Zta expression level in ex vivo infected B cell line PD-LCL is detectable in DMSO treated cells and it is not affected after HDACi treatment. All HDACis used induced detectable amounts of H3-ac, with cell line-dependent variation (FIG. 1E). To assess the extent of EBV reactivation, mRNA expression of several immediate-early, early, and late lytic genes was analysed (FIG. 9E). […] Up to 5-10% of YCCEL1 and SNU719 cells were positive for late Viral Capsid Antigen (VCA) after chidamide or CXD101 treatment, but not SAHA-treatment. […] Both benzamide- and hydroxymate-based HDACi can induce EBV reactivation in gastric epithelial cancer cells, but benzamide-based HDACis are generally less toxic than hydroxymate-based HDACi.

[4] = test system: PD-LCL cells; assay: Western blot for Zta in lymphoblastoid cell line; assay type: cell-based, human; settings: detectable in DMSO treated cells
Description: as §1, §2

[5] = test system: AGS-EBV cells; assay: RT-qPCR of EBV lytic genes; assay type: cell-based, human
Excerpt: RNA was extracted from cells using the RNeasy Mini Kit (Qiagen), following the manufacturer's instructions. Possible contamination with genomic DNA was removed by treatment with DNase I according to the manufacturer's instructions. One μg was used to generate cDNA using the SuperScript Reverse Transcriptase III System following the manufacturer's instructions. QuantiTect SYBR Green PCR Kit was used to perform RT-qPCR using the StepOnePlus real-time PCR system (Applied Biosystems). Reactions were performed in duplicate and in a final volume of 20 μL. Relative mRNA abundances were normalized to endogenous glyceraldehyde 3-phosphate dehydrogenase (GAPDH) mRNA levels. Shown qPCR results were analyzed by the ΔΔCt-method, with the threshold cycles being determined by the Applied Biosystems software.

[6] = test system: PBMCs from an EBV+ healthy donor; assay: IFNγ ELISpot of ex vivo EBV-specific CD8+ T cell responses; assay type: cell-based, human; settings: PBMCs with pool of EBV epitopes, 12 hours; range of doses
Excerpt: To be able to effectively “kick” EBV+GC cells into Zta+ abortive EBV reactivation lytic cycle presented us with an opportunity to “kill” the reactivated EBV+ cancer cells by harnessing the host's immune system, Zta specific T cells in particular as Zta is highly immunogenic (Pudney, V. A., et al. (2005). J Exp Med 201, 349-360) and many EBV seropositive individuals have Zta memory T cells. This study was set out to test whether HDACi have any direct impacts on CD8+ T cell responses to EBV viral antigens. Peripheral blood mononuclear cells (PBMCs) from an EBV+ healthy donor were stimulated with a pool of pre-determined EBV epitopes in the presence or absence of HDACi for 12 hours, and ex vivo EBV-specific CD8+ T cell responses were determined by an IFNγ ELISpot assay. […] In parallel, the optimal dose of each HDACi for AGS-EBV to minimize cell toxicity versus their ability to induce Zta expression was determined (FIG. 15A). To provide a proof of principle, whether reactivation of Zta by HDACi could sensitize tumor cells for recognition and killing by Zta-specific CD8+ T cells was subsequently tested. […] The TCR gene was retrovirally transduced into a TCR-negative T cell line (SKW3) or primary human CD8+ T cells for functional readouts, including cytokine production and killing of the tumor cells.

[7] = test system: AGS-EBV cells; assay: Killing of AGS-EBV cells by Zta-specific TCR-T cells (IncuCyte, Cytotox Red); assay type: cell-based, human; settings: for cell death of AGS-EBV cells: HDACi pre-treatment, then primary T cells expressing TCR4, after 8 h of co-culture, compared to DMSO
Description: EBV+GC cells were treated with either 2.5 μM of CXD101, 5 μM of chidamide, or 5 μM of SAHA, and DMSO was used as a negative control. Approximately 10×10^5 AGS-EBV cells were plated in […] the day before treatment to allow 50% confluence. The next day, the media was removed, and the cells were treated for 48 hours with the HDACi or DMSO. After 48 hours, the cells were dissociated with trypsin-EDTA and counted. The dissociated cells were plated in the wells of a flat-bottomed 96-well plate and left to adhere for 4-6 hours before the addition of Zta-specific T cells. The IncuCyte S3 Live-Cell analysis system was used to analyze the interactions between the T cells and the HDACi-treated gastric cells over a period of 24 hours. The cells were cultured at an E:T ratio of 10:1. The IncuCyte® Cytotox Red Reagent for counting dead cells was added to each well at the start of incubation. The treated AGS-EBV cells were co-cultured with the HLA-A*02:01-restricted TCR4 primary T cell clones and the HLA-mismatched control clone, TCR9. After 24 hours of incubation, the supernatant was removed from the wells for quantification of cytokines. The ability of the clones to kill the target cells was assessed using the automated IncuCyte analysis software. The Cytotox Red apoptosis marker that was added to the wells at the start of co-culture was taken up by dead cells, and the overlap area of this red fluorescence with larger, very bright GFP cells was measured in μm^2 per replicate well at each set time point.

[8] = test system: YCCEL1 cells; assay: High content imaging of Zta-positive cells (immunofluorescence)
Description: Cells were seeded on 13 mm coverslips or 96 well-plates 24 h prior to the treatment. After washing with PBS, cells were fixed by the addition of 4% formaldehyde (Life Technologies) in PBS for 10 min, washed three times with PBS, and incubated with 0.1% Triton X-100 for 20 min. After three more washes, coverslips were incubated with Signal Enhancer for 30 min. Following one wash, cells were incubated with the primary antibody diluted in antibody diluent (Dako) with a background reducing agent for 90 min. After washing three times, coverslips were incubated with a secondary antibody solution containing DAPI diluted in antibody diluent for 1 h in the dark. Coverslips were washed three times with PBS and once in purified water before coverslips were mounted on Polysine Microscope Adhesion slides with ProLong Gold Antifade Mountant (Life Technologies). Cells affixed on slides were visualized using a Zeiss LSM 710 laser scanning confocal microscope, while cells on 96 well plates were visualized using the Operetta High Content Screening System (PerkinElmer).
Experiments were run in duplicate. Liquid handling for cell plating, drug treatment, and cell fixation was performed using a JANUS PerkinElmer Automated Workstation (PerkinElmer). […] All other staining steps were performed with a FlexDrop PLUS (PerkinElmer). Cells were visualized using a GE IN Cell Analyzer 6000 (GE Healthcare Life Sciences) with a 10× objective. Percentages of Zta-positive cells within the wells were assessed with a protocol established within the Columbus software (PerkinElmer).
The readout was percentage of cells positive for the immediate-early viral transcription factor Zta, as assessed by immunofluorescence staining and confocal microscopy.

[9] = test system: YCCEL1 cells; assay: Western blot for Zta and total acetylation of histone 3; assay type: cell-based, human; settings: FIGS. 1C and 9D (YCCEL1; SNU719)
Description: as §1

[10] = test system: NCC-24 cells; assay: Western blot for p53 and Zta; assay type: cell-based, human; settings: NCC-24, mutant TP53 (G266R and R273H)

Row | Compound | toxicity (cell number relative to DMSO) [1] | Zta expression [2] | Zta expression [3] | Zta expression level [4] | activation of lytic genes [5] | effect on T cell responses to EBV antigens [6] | toxicity induced by T cells ([7]; AGS-EBV, compared to SAHA (P<0.01)) | cell death of AGS-EBV cells [7] | Zta+ cells ([8]; 5 μM) [%] | Zta+ cells ([8]; 10 μM) [%] | Zta expression / EBV reactivation ([8]; increasing concentrations (FIG. 1B)) | induction of Zta expression (Western blot) [9] | total histone 3 acetylation (H3-ac) [9] | Zta expression (Western blot) ([2]; agent alone) | Zta expression [10]
1 | Cc1nn(C)cc1CN1CCC(c2ccc(C(=O)Nc3ccccc3N)cc2)CC1 [CXD101] | low toxicity | strong activation of Zta expression | none of these HDACi induced Zta expression | not affected | comparable activation of lytic genes | little, if any, inhibitory effect | more pronounced | dramatic increase in cell death | 36.5 | 40.7 | strong dose-dependent effect on Zta expression | – | – | – | –
2 | O=C(CCCCCCC(=O)Nc1ccccc1)NO [SAHA] | – | strong activation of Zta expression | – | – | comparable activation of lytic genes | – | – | dramatic increase in cell death | – | – | – | failure | induced detectable H3-ac | – | –
3 | COc1ccc(C2=N[C@@H](c3ccc(Cl)cc3)[C@@H](c3ccc(Cl)cc3)N2C(=O)N2CCNC(=O)C2)c(OC(C)C)c1 [nutlin-3a] | – | – | – | – | – | – | – | – | – | – | – | – | – | able to induce high levels of Zta expression | failed to express Zta
